We go through one molecule from patent US8080517B2, “Cell-permeable peptide inhibitors of the JNK signal transduction pathway” (Xigen SA, priority 2005, dated 2011).

One data set deals with βTC-3 cell cultures. The class given is cell-based. Here is the method: The ability of the L- and D-enantiomeric forms of TAT and inventive TAT-IB1(s) peptides (“TAT-IB peptides”) to enter cells was evaluated. L-TAT, D-TAT, inventive L-TAT-IB1(s), and inventive D-TAT-IB1(s) peptides [SEQ ID NOs: 5, 6, 9 and 12, respectively] were labeled by N-terminal addition of a glycine residue conjugated to fluorescein. Labeled peptides (1 μM) were added to βTC-3 cell cultures, which were maintained as described in Example 3. At predetermined times cells were washed with PBS and fixed for five minutes in ice-cold methanol-acetone (1:1) before being examined under a fluorescence microscope. Fluorescein-labeled BSA (1 μM, 12 moles/mole BSA) was used as a control.
Little to no signal was present at 48 hours.
Fluorescent signals from these all-D retro-inverso peptides were still very strong 1 week later, and the signal was only slightly diminished at 2 weeks post treatment.

A further data set concerns βTC-3 cells. Nature of the data set: IL-1β induced pancreatic β-cell death, peptide treatment, propidium iodide / Hoechst 33342 staining. Format: cell-based. Conditions: one single addition 1 μM, IL-1β 10 ng/ml every two days, 15 days. Here is the method: We investigated the effects of the inventive L-TAT-IB(s) peptides on the promotion of β-cell apoptosis elicited by IL-1. βTC-3 cell cultures were incubated for 30 minutes with 1 μM of inventive L-TAT-IB1(s) peptides followed by 10 ng/mL of IL-1. A second addition of peptide (1 μM) was performed 24 hours later. Apoptotic cells were counted after two days of incubation with IL-1 β using propidium iodide (red stained cell are dead cells) and Hoechst 33342 (blue stained cell are cells with intact plasma membrane) nuclear staining.
Long term inhibition of IL-1 induced cells death was examined by treating βTC-3 cells as described above, except that incubation of the cells with the peptides and IL-1 β was sustained for 12 days. Additional peptides (1 μM) were added each day and additional IL-1 β (10 ng/mL) was added every 2 days. […] Taken together, these experiments provide evidence that inventive TAT-IB(s) peptides are biologically active molecules able to prevent the effects of JNK signaling on cell fate.
Inhibition of IL-1 β induced pancreatic β-cell death by the inventive D-TAT-IB1(s) peptide was analyzed. βTC-3 cells were incubated as described above for 30 minutes with one single addition of the indicated peptides (1, μM), then IL-1 (10 ng/ml) was added.
Apoptotic cells were then counted after two days of incubation with IL-1 β by use of Propidium Iodide and Hoechst 33342 nuclear staining. A minimum of 1,000 cells were counted for each experiment. Standard Error of the Means (SEM) are indicated, n=5.
Long term inhibition of IL-1P induced cell-death by the D-TAT-IB1 peptide was also analyzed. βTC-3 cells were incubated as above for 30 minutes with one single addition of the indicated peptides (1 μM), then IL-1 β (10 ng/ml) was added, followed by addition of the cytokine every two days. Apoptotic cells were then counted after 15 days of incubation with IL-1 by use of propidium iodide and Hoechst 33342 nuclear staining. […] A minimum of 1.000 cells were counted for each experiment.

The nature of data set [1]: Focal cerebral ischemia, permanent MCAO model, lesion volume. The class given is in vivo, 12-days-old rats. From the text: Focal cerebral ischemia was induced in 12-days-old rats. Pups were anesthetized in an induction chamber with 2% isoflurane and during the operation anaesthesia was maintained using a mask under 2% isoflurane. MCAO was induced by electrocoagulating a main branch of the middle cerebral artery (MCA). Rats were placed on the right side, and an oblique dermal incision was made between the ear and eye. After excision of the temporal muscle, the cranial bone was removed from the frontal suture to a level below the zygomatic arch. […] The cranial skin incision was then closed. Rat pups were then placed in an incubator maintained at 37° C. until they awoke, and were then transferred to their mother.
6 hours later an inventive chimeric D-TAT-IB1(s) peptide according to SEQ ID NO: 11 was injected intraperitoneally. 24 hours after the coagulation, the rats were anesthetized with chloral hydrate and perfused through the ascending aorta with 4% paraformaldehyde in PBS. Brains were then removed and kept for 2 hours in the same fixative solution, and placed in a gradient of 30% sucrose in PBS for about 15 hours at 4° C. Brains were frozen in isopentane (−40° C.) and stored at −20° C. Coronal cryostat sections of 50 µm were collected on glass slides. The sections were stained with cresyl violet. Each tenth section was analyzed and the total volume of the lesion was calculated using the Neuroleucida programme. In the control group A, the mean lesion volume was 21.47 mm^3. […] A significant statistic difference is observed between group A and groups C, E and F (one-tailed t-test, p=0.030, p=0.002, p=0.001 respectively).

Data set [2] is described as follows: Focal cerebral ischaemia, transient MCAO model, infarct volume. The class given is in vivo, male ICR-CD1 mice. The following applies: i.v. administration, FIG. 4. From the text: Evaluation of neuroprotection by inventive chimeric peptides after iv administration against focal cerebral ischaemia, in a transient MCAO model (see FIG. 4).
Transient ischemia in adult mice. Using male ICR-CD1 mice (6 weeks old; 18-37 g; Harlan), we provoked ischemia by introducing a filament from the common carotid artery into the internal carotid and advancing it into the arterial circle, thereby occluding the middle cerebral artery. We measured regional cerebral blood flow by laser Doppler flowmetry, with a probe fixed on the skull throughout the ischemia until 10 min after reperfusion. Rectal temperature was measured and maintained at 37° C. The mice were killed 48 h after reperfusion. Serial cryostat sections 20 μm thick were traced using a computer-microscope system equipped with the Neurolucida program (MicroBrightField) and the volumes of the ischemic area and of the whole brain were calculated (blinded) with the Neuroexplorer program. XG−102 0.3=0.3 mg/kg,XG−102 1=1 mg/kg, XG−102 5=5 mg/kg
The infarct volume sizes (mm^3) after bolus iv administration of placebo and XG-102 0.3, […] 6 hours after reperfusion (30 minutes clamp) in an adult mice model were as follows.

A short description of data set [3]: Noise trauma, hearing threshold shifts by auditory brainstem response. The class given is in vivo, guinea pigs. Here is the method:
D-TAT-IB1(s) was applied onto the round window membrane of the cochlea of 3 groups of guinea pigs (each group with 6 animals) in 2 microliters of a gel formulation of 2.6% buffered hyaluronic acid (Hylumed, Genzyme Corp.) at a concentration of 100 µM either 30 minutes before noise trauma (120 dB at 6 kHz during 30 minutes) or 30 minutes or 4 hours thereafter. Untreated ears served as control. Hearing threshold shifts were evaluated by auditory brainstem response measurements 20 minutes after noise trauma (temporary threshold shift, TTS) and 15 days following the trauma (permanent threshold shift, PTS). […] Thus, D-TAT-IB1 (s) is a very effective otoprotective compound in case of noise trauma.

“Also recorded” adds a separate entry of the source. Where a SMILES comes first, the peptide text is derived from it. [ ]: non-standard residue; d: D form.

Take `CC(C)C[C@@H](NC(=O)[C@@H](Cc1ccccc1)NC(=O)[C@H]1CCCN1C(=O)[C@@H](CCC(N)=O)NC(=O)[C@H](NC(=O)[C@H]1CCCN1C(=O)[C@@H](CCCNC(=N)N)NC(=O)[C@@H](CO)NC(=O)[C@@H](CCC(N)=O)NC(=O)[C@H](N)CC(=O)O)C(C)C)C(=O)N[C@H](CC(N)=O)C(=O)N[C@H](CC(C)C)C(=O)N[C@@H](C(=O)N[C@@H](C(=O)N1CCC[C@@H]1C(=O)N[C@H](CCCNC(=N)N)C(=O)N[C@H](CCCCN)C(=O)N1CCC[C@@H]1C(=O)N[C@H](CCCNC(=N)N)C(=O)N1CCC[C@@H]1C(=O)N1CCC[C@@H]1C(=O)N[C@H](CCCNC(=N)N)C(=O)N[C@H](CCCNC(=N)N)C(=O)N[C@H](CCCNC(=N)N)C(=O)N[C@H](CCC(N)=O)C(=O)N[C@H](CCCNC(=N)N)C(=O)N[C@H](CCCNC(=N)N)C(=O)N[C@H](CCCCN)C(=O)N[C@H](CCCCN)C(=O)N[C@H](CCCNC(=N)N)C(=O)NCC(=O)O)[C@H](C)O)[C@H](C)O` [D-TAT-IB1(s)] (H-[dD][dQ][dS][dR][dP][dV][dQ][dP][dF][dL][dN][dL][dT][dT][dP][dR][dK][dP][dR][dP][dP][dR][dR][dR][dQ][dR][dR][dK][dK][dR]G-OH): the “stability inside the cells” value in the data set with βTC-3 cell cultures is “extremely stable inside the cells”. In addition, the “long term inhibition of IL-1β induced cell-death” value in the data set on βTC-3 cells was “able to confer long term (15 day) protection”. Moreover, the “mean lesion volume of all treated groups versus control group” value in data set [1] (control group mean 21.47 mm^3) was “lower mean than the control group”. In addition, the “cerebral protection (lesion volume) compared to saline group” value in data set [1] (doses 1 mg/kg, 0.003 mg/kg and 0.0003) is “not large enough to reach a significant difference”. Also, the “dose of best protection” value in data set [1] (i.p. 6 hours after MCAO) is given as 0.03 mg/kg. The “cerebral protection (lesion volume)” value in data set [1] (i.p. 6 hours after MCAO, doses 11 mg/kg, 3 mg/kg, 0.3 mg/kg and 0.03 mg/kg, 24 hours after coagulation) is “contributes to a cerebral protection”. For the same molecule, the “neuroprotection (infarct volumes)” value in data set [2] is “provides efficient neuroprotection”. Besides, in data set [3] (100 μM in hyaluronic acid gel on round window membrane 30 minutes before noise trauma (120 dB at 6 kHz, 30 minutes)), the “protection against permanent hearing loss (PTS, 15 days)” value was “protects substantially against permanent hearing loss from noise trauma if applied preventively before the noise exposure”. The “permanent threshold shift (PTS, 15 days) versus untreated control ears” value in data set [3] (100 μM in hyaluronic acid gel on round window membrane 30 minutes or 4 hours after noise trauma) is “significantly lower; also recorded: protected against permanent hearing loss even if applied after exposure to excessive noise”. In data set [3] (30 minutes versus 4 hours after trauma), the “dependence of the protective effect on time of administration after noise trauma” value is reported as “in a time-dependent fashion if administered after trauma; also recorded: stronger the earlier”.
